Ends that are not written are not given here.
Tests used:
[1] = tested on: isolated jejunal segments from egg albumin-sensitised rats; assay: antigen-induced contraction of isolated jejunal segments, Examples 3 and 6; parameters: species or system rat; key to Biological Activity = inhibition of antigen-induced jejunal contraction by test peptide: +++ = highest inhibition (~60%); ++ = moderate inhibition (~40%); + = lowest inhibition (~20%); − = no inhibition
Method: SGP-T, at doses as low as 6.8×10^−7M, reduced antigen induced contractions of these isolated intestinal tissues by 60% (data not shown).
Analogues and fragments of SGP-T were tested for their ability to inhibit antigen (egg albumin)-induced intestinal contractions, using isolated jejunal segments from egg albumin-sensitised rats, as described in Example 3.

[2] = tested on: jejunal segments from ovalbumin-sensitized rats; assay: antigen-induced jejunal segment contraction, URE/OA ratio, Example 7; parameters: species or system rat; details: 10 μg peptide; for URE/OA: 100 ng OA, 20 μg urecholine
Method: Animals and Tissue Preparation: Male Sprague-Dawley rats were sensitized to egg albumin (ovalbumin, OA) with 50 ng of Pertussis bordetella toxin as an adjuvant. Four to six weeks after sensitization, the rats were anaethetised with sodium pentobarbital and the jejunum was removed. Two cm sections of the jejunum were mounted in tissue baths under 0.75 g of isometric tension, and the tissues were allowed to equilibrate for 20 min prior to beginning the experiment.
10 μg of SGP-T or one of its analogues or fragments was added to a bath, while control tissues received the saline vehicle. Following a 10 min incubation, 100 ng of OA prepared in 0.9% saline was added. After the tissue had reached a maximal contractile response, the tissues were washed extensively to remove OA and peptide and, after the tissues had established baseline tension, 20 μg of urecholine (URE; a cholinergic-muscarinic receptor agonist) was added to determine the maximal contractile response of the tissue. The tissues were then removed from the bath, cleared of all underlying mucosa and the weight of the remaining muscle was determined.
Data Analysis: The tension (measured in grams) per gram tissue weight generated by each tissue in response to OA and URE was calculated. To normalize for differences in the ability of each tissue segment to contract in response to the muscle stimulants, the contractile response to […]. Thus, a measure of the antigen-induced contraction was expressed as the URE/OA ratio.
The data was analyzed using the one-way analysis of variance (ANOVA) and differences between groups was determined using the Student t-test for unpaired samples. The results are shown in FIGS. 7 and 8 and Tables 3 and 4.

[3] = tested on: LPS (Salmonella typhosa)-induced hypotension in unoperated rats; assay: endotoxin (LPS)-induced hypotension, unoperated rats; assay type: in vivo, rat
Method: (§1) The animal model of endotoxic shock used involves intravenous injection of endotoxin (3.5 mg/kg of lipopolysaccharide (LPS) from Salmonella typhosa) into pentobarbital-anaesthetized Sprague-Dawley rats, to produce a fall in mean arterial blood pressure within 3 to 5 minutes. The endotoxin was injected slowly over 1 min. via the jugular vein, and mean arterial blood pressure in mm mercury (MABP) was monitored continuously for 60 min, with the average blood pressure being calculated at 15, 30, 45 and 60 min. Studies were performed on unoperated rats and rats with their submandibular glands removed (sialadenectomized).
(§2) The results shown in Table 1 are the averages of three different experiments using the protocol defined above. The data shown represent the average decrease in MABP (dec MABP) and the % Decrease in MABP over the 60 minutes following LPS administration. SGP-S (100μg/kg) and SGP-T (100 μg/kg) were administered 90 min. before LPS. […] Neither SGP-T nor SGP-S, when given prior to the LPS challenge, had appreciable effects on MABP.
Overall, SGP-T reduced by 60% the decrease and the percent decrease in MABP induced by endotoxin, relative to pre-LPS values. SGP-S, on the other hand, had no effect on the shock induced by endotoxin in unoperated rats.
(§3) The dose-response relationship of the inhibitory effect of SGP-T and SGP-S on endotoxin-induced hypotension was also examined and the results are shown in FIG. 1.

[4] = tested on: LPS (Salmonella typhosa)-induced hypotension in sialadenectomized rats; assay: endotoxin (LPS)-induced hypotension, sialadenectomized rats; assay type: in vivo, rat
Method: as §1, §2, §3

[5] = peptide 100 μg/kg 90 min before LPS 3.5 mg/kg iv

Substance | Biological Activity = inhibition of antigen-induced jejunal contraction by test peptide [1] | anti-anaphylactic activity in jejunal assay, in words [2] | URE/OA ([2]; Table 3, saline 4.0 ± 0.4) | further results
FEGGG [T6] | ++ (++ = moderate inhibition (~40%)) | no effect on activity | 10.7 ± 2.0 | 
TDIFEGG-NH2 [T5, SGP-T with amidated terminal glycine] | − | abolished anti-anaphylactic activity | 4.3 ± 0.7 | 
TDIFAGG [T9, alanine analogue of SGP-T] | − |  | 7.2 ± 1.1 | 
FE-Proline |  | loss of biological activity |  | URE/OA ([2]; Table 4, saline 5.7 ± 1.0): 6.2 ± 1.3
FE-Citrulline |  | loss of biological activity |  | URE/OA ([2]; Table 4, saline 5.7 ± 1.0): 5.0 ± 1.1
FEG | ++ (++ = moderate inhibition (~40%)) |  |  | 
NH2-Ser-Gly-Glu-Gly-Val-Arg-COOH (H-SGEGVR-OH) [SGP-S, submandibular gland peptide S, SGEGVR] |  |  |  | effect on drop in MABP / shock induced by endotoxin [3]: no effect; % Dec = percent decrease in MABP relative to MABPbef [3, 5]: −22.9 ± 1.3%; MABPaft = average MABP for 60 mins after LPS injection [3, 5]: 95.2 ± 4.3 mm Hg; dec MABP = decrease in MABP after LPS relative to MABPbef [3, 5]: −28.1 ± 1.8 mm Hg; effect on drop in MABP after LPS [4]: significantly reduced the drop in MABP; % Dec = percent decrease in MABP relative to MABPbef [4, 5]: −32.3 ± 3.9 %; MABPaft = average MABP for 60 mins after LPS injection [4, 5]: 81.6 ± 5.8 mm Hg; dec MABP = decrease in MABP after LPS relative to MABPbef [4, 5]: −37.6 ± 4.4 mm Hg
FE-Sarcosine |  |  |  | URE/OA ([2]; Table 4, saline 5.7 ± 1.0): 10.0 ± 1.6
STDIFEGG [T2, analogue of SGP-T] | − |  | 3.58 ± 1.07 | 
TDIAEGG [T11, alanine analogue of SGP-T] | − |  | 5.2 ± 1.2 | 
TDAFEGG [T10, alanine analogue of SGP-T] | + (+ = lowest inhibition (~20%)) | minimal effect on prevention of anaphylaxis | 8.3 ± 1.9 | 
ADIFEGG [T3, alanine analogue of SGP-T] | − |  | 3.6 ± 0.9 | 
TDIFE [T4] | − | abolished anti-anaphylactic activity | 1.7 ± 0.3 | 
TAIFEGG [T7, alanine analogue of SGP-T] | +++ (+++ = highest inhibition (~60%)) | minimal effect on prevention of anaphylaxis | 12.3 ± 2.2 | 

Source: patent US7094760B2, “Peptides for treatment of inflammation and shock” (Salpep Biotechnology, Inc., priority 1996, dated 2006)
